Laboratory results reported in patent publication US20020165236A1, “Compounds for the treatment of protozoal diseases” (priority 2001, published 2002).

Tested on: multiresistant Dd2 strain of Plasmodium falciparum
Test: antiplasmodial action, [8-3H]hypoxanthine incorporation, Dd2 strain
Assay type: cell-based
Conditions: read-out: in vitro antiplasmodial activity (IC50 value class)
Method: For the determination of the antiplasmodial action of the compounds, the multiresistant Dd2 strain of Plasmodium falciparum was used. The incorporation of [8-^3H]hypoxanthine into the parasitic nucleic acids was measured. The plasmodia were incubated at 0.3% parasitaemia and an erythrocyte haematocrit of 2.5% in the presence of different concentrations of the compounds in a final volume of 200-μl. The medium employed was RPMI 1640 which contained 10% of heat-treated human serum and 3 mg/l of gentamycin. in the incubations, the concentrations of the compounds varied from 0.3 to 100 μM. After 48 h, each batch was treated with 50 µl of […] (1 mCi/ml) and incubated for a further 18 h. The cells were filtered off, washed and suspended in 20 μl of scintillation fluid. The radioactive hypoxanthine absorbed by the parasites was then quantified using a scintillation counter.
The results were presented graphically and the IC50 value was determined using a fitting function. The value IC50, the ‘inhibition constant’, indicates the value in μMol/1 at which 50% inhibition occurs.

`CSc1ccc(NC(=O)Nc2cccc(C(=N)NN)c2)cc1` [Compound 1] and `CSc1ccc(NC(=O)Nc2cccc(C(=N)N)c2)cc1` [Compound 7] fall in the same range of IC50: 1 to 10 µM for the first, 1 to 10 µM for the second.

`N=C(N)c1ccc(NC(=O)Nc2cccc(C(F)(F)F)c2)cc1` [Compound 2] and `N=C(N)c1cccc(NC(=O)Nc2ccc(C(F)(F)F)cc2)c1` [Compound 8] fall in the same range of IC50: 1 to 10 µM for the first, 1 to 10 µM for the second.

`N=C(N)c1cccc(NC(=O)Nc2ccccc2Br)c1` [Compound 3] and `N#Cc1ccccc1NC(=O)Nc1cccc(C(=N)N)c1` [Compound 4] fall in the same range of IC50: 1 to 10 µM for the first, 1 to 10 µM for the second.

Compared with `CS(=O)(=O)c1ccc2nc(NC(=O)Nc3cccc(C(=N)N)c3)sc2c1` [Compound 6], `N=C(N)c1cccc(NC(=O)Nc2ccc(S(N)(=O)=O)cc2[N+](=O)[O-])c1` [Compound 28] is lower in IC50: 10 to 100 µM for the first, 1 to 10 µM for the second. The second is the more potent here.

Compared with `N=C(N)c1cccc(NC(=O)Nc2ccc(Cl)c(C(F)(F)F)c2)c1` [Compound 9], `N=C(N)c1cccc(NC(=O)Nc2ccc(C(F)(F)F)cc2Br)c1` [Compound 11] is higher in IC50: less than 1 µM for the first, 1 to 10 µM for the second.

First: COC(=O)c1cc(NC(=O)Nc2cccc(C(=N)N)c2)cc(C(F)(F)F)c1 [Compound 12]
Second: COC(=O)c1cc(NC(=S)Nc2cccc(C(=N)N)c2)cc(C(F)(F)F)c1 [Compound 79]
The IC50 of the first is higher: 1 to 10 µM for the first, less than 1 µM for the second.

`N=C(N)c1cccc(NC(=O)Nc2ccc(Br)cc2Br)c1` [Compound 14] and `N=C(N)c1cccc(NC(=O)Nc2ccc(S(N)(=O)=O)cc2)c1` [Compound 30] fall in the same range of IC50: 1 to 10 µM for the first, 1 to 10 µM for the second.

`COC(=O)c1cc(NC(=O)Nc2ccc(C(=N)N)cc2)cc(C(F)(F)F)c1` [Compound 16] and `N=C(N)c1cccc(NC(=O)Nc2ccc(S(=O)(=O)NCc3cc(F)cc(C(F)(F)F)c3)cc2)c1` [Compound 46] fall in the same range of IC50: 1 to 10 µM for the first, 1 to 10 µM for the second.

Compared with `CN1C(=O)c2ccc(NC(=O)Nc3cccc(C(=N)N)c3)cc2C1=O` [Compound 17], `CC(=O)Nc1cccc(NC(=O)Nc2cccc(C(=N)N)c2)c1` [Compound 66] is lower in IC50: 10 to 100 µM for the first, 1 to 10 µM for the second. The second is the more potent here.

`N=C(N)c1cccc(NC(=O)Nc2ccc(S(=O)(=O)N3CCc4ccccc4C3)cc2)c1` [Compound 20] and `N=C(N)c1cccc(NC(=O)Nc2ccc(S(=O)(=O)Nc3ccccc3)cc2)c1` [Compound 26] fall in the same range of IC50: 1 to 10 µM for the first, 1 to 10 µM for the second.

First: CCCCNS(=O)(=O)c1ccc(NC(=O)Nc2cccc(C(=N)N)c2)cc1 [Compound 21]
Second: N=C(N)c1cccc(NC(=O)Nc2ccc(S(=O)(=O)NCc3ccccc3)cc2)c1 [Compound 33, 3-[3-(4-Benzylsulfamoyl-phenyl)-ureido]-benzamidine]
The IC50 of the first is higher: 1 to 10 µM for the first, less than 1 µM for the second. The second is the more potent here.

First: N=C(N)c1cccc(NC(=O)Nc2ccc(S(=O)(=O)NC3C4CC5CC(C4)CC3C5)cc2)c1 (stereo not drawn) [Compound 22]
Second: N=C(N)c1cccc(NC(=O)Nc2ccc(S(=O)(=O)NCc3cccc(F)c3)cc2)c1 [Compound 36]
The IC50 of the first is higher: 10 to 100 µM for the first, less than 1 µM for the second. The second is the more potent here.

First: N=C(N)c1cccc(NC(=O)Nc2ccc(S(=O)(=O)NC(c3ccccc3)c3ccccc3)cc2)c1 [Compound 23, 3-{3-[4-(benzhydrylsulfamoyl)-phenyl]-ureido}-benzamidine]
Second: N=C(N)c1cccc(NC(=O)Nc2cccc(C(=O)NC(c3ccccc3)c3ccccc3)c2)c1 [Compound 72]
The IC50 of the first is lower: less than 1 µM for the first, 1 to 10 µM for the second.

`N=C(N)c1cccc(NC(=O)Nc2ccc(S(=O)(=O)Nc3ccc(-c4ccc(N)cc4[N+](=O)[O-])cc3)cc2)c1` [Compound 27] and `N=C(N)c1cccc(NC(=O)Nc2ccc(S(=O)(=O)Nc3ccc4cccnc4c3)cc2)c1` [Compound 29] fall in the same range of IC50: 1 to 10 µM for the first, 1 to 10 µM for the second.

First: N=C(N)c1cccc(NC(=O)Nc2ccc(NS(=O)(=O)c3ccccc3)c(O)c2)c1 [Compound 31]
Second: Cc1ccc(S(=O)(=O)Nc2cccc(NC(=O)Nc3cccc(C(=N)N)c3)c2)cc1 [Compound 32]
The IC50 of the first is lower: 1 to 10 µM for the first, 10 to 100 µM for the second.

`N=C(N)c1cccc(NC(=O)Nc2ccc(S(=O)(=O)NCc3ccc(S(N)(=O)=O)cc3)cc2)c1` [Compound 35, 3-{3-[4-(4-sulfamoyl-benzylsulfamoyl)-phenyl]-ureido}-benzamidine] and `N=C(N)c1ccc(NC(=O)Nc2ccc(S(=O)(=O)NCc3ccc(S(N)(=O)=O)cc3)cc2)cc1` [Compound 51, 4-{3-[4-(4-sulfamoylbenzylsulfamoyl)-phenyl]-ureido}-benzamidine] cannot be ordered by IC50: less than 1 µM for the first, less than 1 µM for the second.

`N=C(N)c1cccc(NC(=O)Nc2ccc(S(=O)(=O)NCc3cccc(C(F)(F)F)c3)cc2)c1` [Compound 37, 3-{3-[4-(3-trifluoromethyl-benzylsulfamoyl)-phenyl]-ureido}-benzamidine] and `N=C(N)c1cccc(NC(=S)Nc2ccc(S(=O)(=O)NCc3cccc(C(F)(F)F)c3)cc2)c1` [Compound 78] cannot be ordered by IC50: less than 1 µM for the first, less than 1 µM for the second.

`N=C(N)c1cccc(NC(=O)Nc2ccc(S(=O)(=O)NCc3ccc(C(F)(F)F)cc3)cc2)c1` [Compound 38] and `N=C(N)c1cccc(NC(=S)Nc2ccc(S(=O)(=O)NCc3ccc(C(F)(F)F)cc3)cc2)c1` [Compound 74] cannot be ordered by IC50: less than 1 µM for the first, less than 1 µM for the second.

`N=C(N)c1cccc(NC(=O)Nc2ccc(S(=O)(=O)NCc3ccc(F)cc3)cc2)c1` [Compound 39] and `N=C(N)c1ccc(NC(=O)Nc2ccc(S(=O)(=O)NCc3ccc(F)cc3)cc2)cc1` [Compound 53] cannot be ordered by IC50: less than 1 µM for the first, less than 1 µM for the second.

`N=C(N)c1cccc(NC(=O)Nc2ccc(S(=O)(=O)NCc3ccccc3F)cc2)c1` [Compound 40] and `N=C(N)c1cccc(NC(=O)Nc2ccc(S(=O)(=O)NCc3cc(F)ccc3F)cc2)c1` [Compound 42] cannot be ordered by IC50: less than 1 µM for the first, less than 1 µM for the second.

`N=C(N)c1cccc(NC(=O)Nc2ccc(S(=O)(=O)NCc3cc(F)c(F)cc3F)cc2)c1` [Compound 41] and `N=C(N)c1cccc(NC(=O)Nc2ccc(S(=O)(=O)NCc3ccc(F)cc3F)cc2)c1` [Compound 43] fall in the same range of IC50: 1 to 10 µM for the first, 1 to 10 µM for the second.

Compared with `N=C(N)c1cccc(NC(=O)Nc2ccc(S(=O)(=O)NCc3ccc(F)c(F)c3)cc2)c1` [Compound 44], `N=C(N)c1cccc(NC(=O)Nc2ccc(S(=O)(=O)NCc3c(F)cccc3F)cc2)c1` [Compound 45] is lower in IC50: 1 to 10 µM for the first, less than 1 µM for the second.

`N=C(N)c1cccc(NC(=O)Nc2ccc(S(=O)(=O)NCc3c(F)ccc(F)c3F)cc2)c1` [Compound 47, 3-{3-[4-(2,3,6-trifluorobenzylsulfamoyl)-phenyl]-ureido}-benzamidine] and `N=C(N)c1ccc(NC(=O)Nc2ccc(S(=O)(=O)NCc3c(F)ccc(F)c3F)cc2)cc1` [Compound 56] cannot be ordered by IC50: less than 1 µM for the first, less than 1 µM for the second.

Compared with `CC(NS(=O)(=O)c1ccc(NC(=O)Nc2cccc(C(=N)N)c2)cc1)c1ccc(F)cc1` (stereo not drawn) [Compound 48], `N=C(N)c1cccc(NC(=O)Nc2ccc(S(=O)(=O)NCc3ccc([N+](=O)[O-])cc3)cc2)c1` [Compound 59] is lower in IC50: 1 to 10 µM for the first, less than 1 µM for the second.

First: N=C(N)c1cccc(NC(=O)Nc2ccc(S(=O)(=O)NCc3cccc(OC(F)(F)F)c3)cc2)c1 [Compound 49]
Second: N=C(N)c1cccc(NC(=S)Nc2ccc(S(=O)(=O)NCc3cccc(F)c3)cc2)c1 [Compound 75]
The IC50 of the first is higher: 1 to 10 µM for the first, less than 1 µM for the second.

`N=C(N)c1ccc(NC(=O)Nc2ccc(S(=O)(=O)NCc3cccc(F)c3)cc2)cc1` [Compound 52] and `N=C(N)c1ccc(NC(=O)Nc2ccc(S(=O)(=O)NCc3ccc(F)cc3F)cc2)cc1` [Compound 55] cannot be ordered by IC50: less than 1 µM for the first, less than 1 µM for the second.

First: N=C(N)c1ccc(NC(=O)Nc2ccc(S(=O)(=O)NCc3c(F)cccc3F)cc2)cc1 [Compound 54]
Second: N=C(N)c1cccc(NC(=O)Nc2ccc(S(=O)(=O)c3ccc(NCCO)cc3)cc2)c1 [Compound 65]
The IC50 of the first is lower: less than 1 µM for the first, 1 to 10 µM for the second. The first is the more potent here.

`N=C(N)c1cccc(NC(=O)Nc2cccc(S(=O)(=O)NCc3cccc(F)c3)c2)c1` [Compound 57] and `N=C(N)c1cccc(NC(=O)Nc2cccc(S(=O)(=O)NCc3ccc(S(N)(=O)=O)cc3)c2)c1` [Compound 58] fall in the same range of IC50: 1 to 10 µM for the first, 1 to 10 µM for the second.

`N=C(N)c1cccc(NC(=O)Nc2ccc(S(=O)(=O)NNC(=O)c3ccc(-c4ccccc4)cc3)cc2)c1` [Compound 60] and `N=C(N)c1cccc(NC(=O)Nc2cccc(NC(=O)c3ccc(-c4ccccc4)cc3)c2)c1` [Compound 70] fall in the same range of IC50: 1 to 10 µM for the first, 1 to 10 µM for the second.

First: N=C(N)c1cccc(NC(=O)Nc2ccc(S(=O)(=O)c3ccc([N+](=O)[O-])cc3)cc2)c1 [Compound 63, 3-{3-[4-(4-nitrobenzenesulfonyl)-phenyl]-ureido}-benzamidine]
Second: CN(C)CCNC(=N)c1cccc(NC(=O)Nc2ccc(S(=O)(=O)c3ccc([N+](=O)[O-])cc3)cc2)c1 [Compound 81]
The IC50 of the first is lower: less than 1 µM for the first, 1 to 10 µM for the second. The first is the more potent here.

First: COc1ccccc1C(=O)Nc1cccc(NC(=O)Nc2cccc(C(=N)N)c2)c1 [Compound 68]
Second: COc1ccc(C(=O)Nc2cccc(NC(=O)Nc3cccc(C(=N)N)c3)c2)cc1 [Compound 69]
The IC50 of the first is higher: 1 to 10 µM for the first, less than 1 µM for the second.

`Cc1cc(-c2onc(C)c2C(=O)Nc2ccc(NC(=O)Nc3cccc(C(=N)N)c3)cc2)no1` [Compound 71] and `N=C(N)c1cccc(NC(=O)Nc2ccc(C(=O)NCc3ccc(S(N)(=O)=O)cc3)cc2)c1` [Compound 73, 4-[3-(3-carbamimidoylphenyl)-ureido]-N-(4-sulfamoylbenzyl)-benzamide] fall in the same range of IC50: 1 to 10 µM for the first, 1 to 10 µM for the second.

`N=C(N)c1cccc(NC(=S)Nc2ccc3c(c2)S(=O)(=O)C=C3)c1` [Compound 76] and `CCN(CC)C(=O)c1cccc(NC(=S)Nc2cccc(C(=N)N)c2)c1` [Compound 80] cannot be ordered by IC50: less than 1 µM for the first, less than 1 µM for the second.

`N=C(N)c1cccc(NC(=S)Nc2ccc(S(=O)(=O)c3ccc(NCCO)cc3)cc2)c1` [Compound 77] and `N=C(NCCN1CCCC1)c1cccc(NC(=O)Nc2ccc(S(=O)(=O)c3ccc([N+](=O)[O-])cc3)cc2)c1` [Compound 83] fall in the same range of IC50: 1 to 10 µM for the first, 1 to 10 µM for the second.

`N=C(Nc1cccnc1)c1cccc(NC(=O)Nc2ccc(S(=O)(=O)c3ccc([N+](=O)[O-])cc3)cc2)c1` [Compound 82] showed an IC50 of less than 1 µM.
